Experimental data: US5441887A, “Rapid degradation of halogenated hydrocarbons by soluble methane monooxygenase” (Regents of the University of Minnesota, priority 1994, dated 1995)

Assays:
Mt OB3b = experiment: TCE oxidation by Mt OB3b grown by conventional methods (shake flask); format: cell-based, Methylosinus trichosporium OB3b; settings: initial TCE concentrations of one ppm or higher
[1] = tested on: methane-utilizing mixed culture; settings: Fogel et al.; cited from earlier work
[2] = tested on: Methylosinus trichosporium OB3b; experiment: Two-phase headspace assay of TCE degradation by continuously cultured Mt OB3b; format: cell-based
Description: Each culture of Mt OB3b was added in 2 ml quantities to 10 ml serum bottles. Bottles were sealed with 20 mm teflon-lined rubber septa. TCE was added to start the assay. Headspace accounted for 80% of total volume within bottles, but TCE concentration was added based on 2 ml aqueous phase. TCE resided principally in the headspace. All bottles were inverted in order to prevent possible TCE loss by trapping the compound in the headspace between the liquid phase and glass. Samples were incubated inverted at 30° C. with agitation (200 rpm on a platform shaker).
Headspace incubations were analyzed by direct injection of headspace into a gas chromatograph. This method may be performed without sacrificing a sample. It is important to prepare sound calibration curves for quantitation. The best method for external standardization is to prepare samples as if running an assay and heat-killing at 80° C. for 10 mins prior to TCE addition. Samples were incubated for 30 mins under test conditions to allow adequate time for TCE to partition among the numerous phases (air, water, cell material, and the like). Headspace samples were injected into a gas chromatograph using either FID or ECD. Numerous TCE concentrations were used to obtain a sound standardization curve.
Headspace assays of TCE degradation were conducted by adding bacterial cells from the continuous culture described in Example II or cells diluted with spent Higgins medium (2 mls) into assay vials (10 ml vials).
Rates were calculated from peak heights of recorder tracings from a gas chromatograph equipped with an electron capture detector.

methanotrophic bacteria = settings: optimal conditions, prior reports; cited from earlier work
[3] = tested on: Methylosinus trichosporium OB3b; experiment: No-headspace (single phase) assay of TCE degradation by continuously cultured Mt OB3b; format: cell-based; settings: for Rates: 0% methane, 10 min-15 min; for micromoles TCE removed · hr^-1 · g dry cells^-1: cells cultured with methane 45 ml/min, air 135 ml/min; for Micromoles TCE removed: culture 0.64 g cells/l
Description: Each culture of Mt OB3b was added to 1.8 ml serum bottle prewarmed to 30° C. and sealed with an 11 mm teflon-lined rubber septa. For comparisons requiring similar initial dissolved oxygen levels, anaerobic make-up media (usually 0.6 ml) was added to the bottles first and then the bottles were sealed. Air-saturated 30° C. Higgins media prepared as in Example I was added via gas-tight syringe (1.0 ml), while 1 atm pressure was maintained by allowing air to bleed through a 25 gauge needle. Finally, culture was added (concentrated to give desired density) while remaining headspace-was bled out through the 25 gauge needle. TCE was added with a syringe at the bottom of the sealed bottle, with a syringe at top of the bottle removing equivalent volume of culture. The assay time course was started with TCE (substrate) addition. Incubation was performed at 30° C. with agitation at 200 rpm on a platform shaker.
Assays were terminated by extraction at desired time points. The liquid-liquid extraction technique used 0.6 ml of pentane containing 1,2-dibromoethane as an internal standard added via gas-tight syringe to inverted assay bottle, while a second syringe with a needle below first needle level collected displaced solution. Partitioning was brought to equilibrium by centrifugation of bottles at 5000 rpm for 10 min. The organic layer was removed by gas-tight syringe and placed in a 1 ml serum bottle for chromatographic analysis. In some cases, dilution of sample or split injection was necessary. Electron-capture detection was preferred. The following gas chromatography operating parameters were used:
The following Tests 1, 2 and 3 were conducted according to the no-headspaceassay procedure described generally above. […]
In prewarmed (30° C.) 120 ml serum bottles, 1 ml of Mt OB3b cell suspension grown in a chemostat (A600 =1.460) were mixed with 9 mls of 30° C. Higgins media prepared as in Example I. One bottle was prepared by adding "spent" media from the chemostat (decant media after pelleting cells with centrifugation--10,000 rpm for 10 minutes) rather than fresh Higgins media. The bottles were sealed with 20 mm teflon-lined rubber septa, evacuated and refilled with air (0% methane). One bottle was heat-killed and used as a control.
1.76 ml of Mt OB3b cell suspension was added to sealed 1.8 ml serum bottles (25 gauge needle used to equilibrate pressure). 45 μl of 4 mM TCE stock were added to start the assay. Bottles were incubated at 30° C. with agitation on a shaker bath. Bottles were sacrificed at 2.5, 5.0, 10.0, 15.0 and 20.0 mins by displacing 0.6 ml aqueous solution with pentane containing 1 ppm 1,2-dibromoethane as an internal standard. Analysis was performed on a HP 5790A GC using ECD.

## ClC=C(Cl)Cl [TCE, 1,1,2-trichloroethene]
Mt OB3b
  Removal at which oxidation of TCE ceased: about 50%
[1]
  Rate of TCE degradation: approximately 2.5 μmoles per hour per gram of cells
[2]; cell density .070 g·l^-1, initial TCE 22 micromolar
  Rate, micromoles TCE oxidized · g cells^-1 · hr^-1: 808 micromoles TCE oxidized·g cell
[2]; cell density .173 g·l^-1, initial TCE 23 micromolar
  Rate, micromoles TCE oxidized · g cells^-1 · hr^-1: 461 micromoles TCE oxidized·g cell
[2]; cell density .347 g·l^-1, initial TCE 22 micromolar
  Rate, micromoles TCE oxidized · g cells^-1 · hr^-1: 465 micromoles TCE oxidized·g cell
[2]; cell density .521 g·l^-1, initial TCE 22 micromolar
  Rate, micromoles TCE oxidized · g cells^-1 · hr^-1: 308 micromoles TCE oxidized·g cell
[2]; cell density .695 g·l^-1, initial TCE 22 micromolar
  Rate, micromoles TCE oxidized · g cells^-1 · hr^-1: 281 micromoles TCE oxidized·g cell
[2]; low cell densities, initial TCE 80 μM, culture cell mass 0.825 g/l (FIG. 1)
  Rate of TCE degradation: 1200 micromoles TCE removed.hr^-1.g cells^-1
Methanotrophic bacteria
  Rates of TCE degradation reported: exceed 100 μmoles per hour per gram of cells
[3]; Test 1, culture turbidity A600 1.310
  Rate of TCE-utilization (no headspace assay): 336 μmoles·hr^-1·g cells^-1
[3]; Test 2, culture turbidity A600 1.410
  Rate of TCE-utilization (no headspace assay): 1070 μmoles·hr^-1·g cells^-1
[3]; Test 3, culture turbidity A600 1.460
  Rate of TCE-utilization (no headspace assay): 2400 μmoles·hr^-1·g cells^-1
[3]; Test 3, times of most rapid oxidation
  Rate when most rapid oxidation of TCE occurred: approximately 3500 μmoles/h^-1.g cells^-1
[3]; Test 3 Run 2, 1/10 dilution in Higgins media
  Rates: 3200 μmoles·h^-1·g cells^-1
[3]; Test 3 Run 3, 1/10 dilution in spent Higgins media from chemostat
  Rates: 3960 μmoles·h^-1·g cells^-1
[3]; concentration of TCE 10 μM
  micromoles TCE removed · hr^-1 · g dry cells^-1: 829 micromoles TCE removed·hr^-1·g
[3]; concentration of TCE 25 μM
  micromoles TCE removed · hr^-1 · g dry cells^-1: 1104 micromoles TCE removed·hr^-1·g
[3]; concentration of TCE 50 μM
  micromoles TCE removed · hr^-1 · g dry cells^-1: 1194 micromoles TCE removed·hr^-1·g
[3]; concentration of TCE 40 μm, 5-10 min.
  Micromoles TCE removed: 2.96 µmol/min
[3]; concentration of TCE 80 μm, 5-10 min.
  Micromoles TCE removed: 5.69 µmol/min
[3]; concentration of TCE 80 μm, 10-15 min.
  Micromoles TCE removed: 3.03 µmol/min
[3]; concentration of TCE 320 μm, 5-10 min.
  Micromoles TCE removed: 15.54 µmol/min
[3]; concentration of TCE 320 μm, 10-15 min.
  Micromoles TCE removed: 10.2 µmol/min
[3]; concentration of TCE 640 μm, 10-25 min.
  Micromoles TCE removed: 10.48 µmol/min
[3]; concluded from Table VIII and other experiments, read-out: Ks for TCE oxidation
  Km: ~5 µM
[3]; methane added 5% saturation, cell density approx. 0.16 g/l, nominal initial TCE 80 μM
  Rate of TCE oxidation: 3350 μmoles·hr^-1·g cells^-1
[3]; methane added 10% saturation, cell density approx. 0.16 g/l, nominal initial TCE 80 μM
  Rate of TCE oxidation: 3000 μmoles·hr^-1·g cells^-1
[3]; methane added 20% saturation, cell density approx. 0.16 g/l, nominal initial TCE 80 μM
  Rate of TCE oxidation: 875 μmoles·hr^-1·g cells^-1
[3]; methane added 50% saturation, cell density approx. 0.16 g/l, nominal initial TCE 80 μM
  Rate of TCE oxidation: 110 μmoles·hr^-1·g cells^-1
[3]; methane added: none, cell density approx. 0.16 g/l, nominal initial TCE 80 μM
  Rate of TCE oxidation: 660 μmoles·hr^-1·g cells^-1
[3]; some cell batches, without any methane present
  Rate of TCE oxidation: approximately 4000 micro-moles.hr^-1.g cells^-1
[3]; under optimal conditions, belief, extrapolated
  Rate at which cells are believed able to oxidize TCE: 10,000 μmoles.h^-1.g cells^-1
